These results are taken from PMC4718634, “Murine GPRC6A Mediates Cellular Responses to L-Amino Acids, but Not Osteocalcin Variants” (PLoS ONE, 2016).

Entries after “also recorded” stand apart in the source; their conditions may differ. Where two headings read alike, the source gives them in different places.

One assay has as its system mC6A. The note with it: cited from earlier work. An excerpt: Supplement pone.0146846.s004.docx, table 1 | column: Functional assay
In another assay the test system is β-TC6 cells. Kind of assay: Insulin release from β-TC6 cells. The note with it: S3 Fig A. Type of assay: cell-based, murine. The method, then: MIN6 or βTC-6 cells were seeded in 24-well plates at 170,000 cells per well in DMEM (containing 4.5g/L glucose, 10 mM HEPES, 100 U/ml penicillin, 100 μg/ml streptomycin and 15% de-complemented FBS) and incubated at 37°C / 5% CO2 for 72 h. Cells were then washed with 500 μl PBS and incubated in 500 μl deprivation media (DMEM with zero glucose, 10 mM HEPES, 1 mM Na-pyruvate, 100 U/ml penicillin, 100 μg/ml streptomycin, 15% de-complemented FBS) for 2 h at 37°C. Media was aspirated and after washing with 500 μl PBS, cells were treated with 250 μl of Krebs buffer (250 mM NaCl, 5.9 mM KCl, 1.2 mM MgCl2, 1.3 mM CaCl2, 25 mM HEPES, 0.1% BSA (w/v), and 2 mM or 16.7 mM glucose; pH 7.4) in the presence or absence of test compound. After incubation for 2 h at 37°C, the assay was terminated by placing the plates on ice and supernatants were transferred to a 96-well plate in preparation for insulin ELISA (Alpco) following manufacturer’s instructions. The cell monolayer was washed twice with 500 μl of PBS and then lysed using 250 μl of 1 N NaOH prior to protein measurement by the method of Bradford (1976).
Concentration-response data were analysed using a three or four parameter logistic function (Motulsky & Christopoulos, 2004) to generate estimates of agonist potency (LogEC50). Data for all HEK293 assays represent the mean ± SEM of at least three independent experiments (except cell impedance, n = 2). For GLP-1 release, the data represent mean ± SEM of three to five independent experiments (except for OCN, wash; n = 2). For insulin release assays, data represent the mean ± SEM of three independent experiments (except for islet studies; n = 2). Insulin release data were normalised to the response to vehicle in either low or high [glucose]. Statistical analysis for GLP-1 release data were performed by one-way ANOVA, followed by Sidak’s multiple comparisons test (treating wash / no wash datasets separately). Statistical analyses for insulin release data were performed by two-way ANOVA (with [glucose] and drug treatment as group variables), followed by Sidak’s multiple comparisons test. Where only high [glucose] groups were evaluated, statistical analysis was by one-way ANOVA followed by Sidak’s multiple comparisons test.

In a further assay the target is T1, mGPRC6A (mouse GPRC6A) (Mus musculus, UniProt Q8K4Z6).
T1 sequence (Q8K4Z6 21-928): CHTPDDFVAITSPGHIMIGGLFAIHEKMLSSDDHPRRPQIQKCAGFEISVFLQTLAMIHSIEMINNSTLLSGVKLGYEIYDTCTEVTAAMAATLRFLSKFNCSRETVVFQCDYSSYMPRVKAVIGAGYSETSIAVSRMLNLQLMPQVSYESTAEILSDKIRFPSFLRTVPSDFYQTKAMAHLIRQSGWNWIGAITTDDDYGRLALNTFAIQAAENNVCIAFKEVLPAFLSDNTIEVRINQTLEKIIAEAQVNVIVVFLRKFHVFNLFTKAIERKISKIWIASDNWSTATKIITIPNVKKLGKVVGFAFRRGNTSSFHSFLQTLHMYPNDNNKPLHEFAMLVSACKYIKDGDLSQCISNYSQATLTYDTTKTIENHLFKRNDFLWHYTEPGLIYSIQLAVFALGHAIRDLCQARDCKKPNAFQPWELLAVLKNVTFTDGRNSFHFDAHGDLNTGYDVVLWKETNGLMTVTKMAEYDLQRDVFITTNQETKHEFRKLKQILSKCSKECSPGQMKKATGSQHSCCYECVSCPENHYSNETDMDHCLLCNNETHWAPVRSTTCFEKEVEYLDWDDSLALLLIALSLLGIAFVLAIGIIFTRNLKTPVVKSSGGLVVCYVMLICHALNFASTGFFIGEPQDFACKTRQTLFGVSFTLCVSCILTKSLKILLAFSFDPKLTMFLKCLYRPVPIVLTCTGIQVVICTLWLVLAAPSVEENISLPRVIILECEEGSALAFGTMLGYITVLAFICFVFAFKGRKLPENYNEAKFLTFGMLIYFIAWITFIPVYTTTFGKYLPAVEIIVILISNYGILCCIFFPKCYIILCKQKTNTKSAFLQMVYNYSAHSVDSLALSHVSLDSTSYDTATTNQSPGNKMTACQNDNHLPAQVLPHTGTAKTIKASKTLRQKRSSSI
Briefly: Cyclic AMP accumulation, FlpIn-TREx-HEK293-mGPRC6A cells. It counts as cell-based. How it is done: pcDNA 5/FRT/TO constructs were isogenically integrated into a FlpIn-TREx-HEK293 cell line (Life Technologies). FlpIn-TREx-HEK293-mGPRC6A and FlpIn-TREx-HEK293-hGPRC6A cells were then selected using 600 μg/ml hygromycin and 5 μg/ml blasticidin and grown in culture medium consisting of Dulbecco’s Modified Eagle Medium (DMEM), supplemented with 10% (v/v) foetal bovine serum (FBS) at 37°C in 5% CO2 and were sub-cultured in a 1:3 ratio every 3–4 days. Cells were cultured overnight in the presence of 1 μg/ml tetracycline to induce GPRC6A expression. […] 48 h after transfection, cells were selected using 3 μg/ml puromycin and grown as above.
HEK293-mGPRC6A cells were seeded at a density of 10^5 cells per well into PDL-coated 96-well plates and incubated overnight in DMEM, supplemented with 10% FBS (v/v) at 37°C in 5% CO2. Cells were then incubated in 90 μl of stimulation buffer (HBSS containing 5 mM HEPES, 0.1% BSA (w/v), 0.5 mM IBMX; pH 7.4) for 30 min at 37°C. Test compounds (10 μl at 10 x final) were added and cells were incubated for an additional 30 min at 37°C. The medium was removed and cells were incubated in 50 μl of ice-cold 100% ethanol. Once evaporated, 100 μl of lysis buffer (5 mM HEPES, 0.1% BSA (w/v), 0.3% Tween-20; pH 7.4) was added to the cells and samples were stored at -20°C until further analysis. Samples were analysed using the Alphascreen® cAMP assay kit (Perkin Elmer) following manufacturer instructions. Briefly, 10 μl of lysates were added to a 384-well Optiplate. After addition of 5 μl of acceptor bead mix, plate was incubated at RT for 30 min followed by addition of 15 μl of donor bead mix. After overnight (16 h) incubation at RT, plates were read using the Envision plate reader.

On to `NCCC[C@H](N)C(=O)O` [L-ornithine], for which the cAMP response result in the assay on mC6A (ref [3] (supplement list)) was “[^3H]IP turnover - co-transfection with Gαqs5, GαqG66D, Gαq or GαqG66Ds5 enabled response to L-aa but Gαqi, Gαqz, Gαqo did not cAMP – no increase or decrease in response to L-Orn”. In the assay with mC6A (ref [13] (supplement list)), the cAMP response result was “no response” and the pERK response entry is “response”. In addition, in the assay with β-TC6 cells (L-ornithine 20 mM), the “glucose-sensitive insulin secretion, L-ornithine” value is “no significant effect”. At mGPRC6A (mouse GPRC6A) (30 min, 0.5 mM IBMX, Alphascreen, Fig 3A), the “stimulation of cAMP accumulation” value is on record as “no detectable modulation of cAMP accumulation”. In addition, the “inhibition of forskolin-stimulated cAMP” value at mGPRC6A (mouse GPRC6A) (forskolin 3 μM, Fig 3A) is recorded as “neither L-ornithine nor OCN variants inhibited cAMP levels stimulated by forskolin; also recorded: Neither L-ornithine nor OCN variants inhibit”.

On to “OCN: osteoblast-derived peptide, osteocalcin; variant not specified at the place (YLYQWLGAPVPYPDPLEPRREVCELNPDCDELADHIGFQEAYRRFYGPV; UniProt P02818 52-100, looked up)”, for which the “IP-One HTRF response to EC25 L-Orn + OCN” value with mC6A (+ GqG66D, ref [13] (supplement list)) is on record as “No response”. Besides, the cAMP accumulation response result in the assay with mC6A (ref [5] (supplement list)) is given as “cAMP accumulation in response to OCN”. Further, in the assay with mC6A (ref [13] (supplement list)), the “IP-One HTRF response” value is “No response”, the cAMP response entry is given as “no response” and the pERK response result is “No specific response”. In addition, the “insulin secretion, OCN” value in the assay on β-TC6 cells (OCN 0.03–100 ng/ml, both glucose concentrations) is given as “no effect on insulin release; also recorded: failed to induce GSIS”. Moreover, the “cAMP response (summary)” value in the assay with mGPRC6A (mouse GPRC6A) (S1 Table) was “no response”.
